Experimental data taken from ChEMBL document CHEMBL1201862, “PubChem BioAssay data set” (2004).
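1) Cells in 96-well plates. 2) Compound, 48 h, 5 concentrations. 3) Linear interpolation between surrounding doses. 4) Unreached endpoint = highest concentration. GI50 marks 50% less growth.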 The source made the active and inactive calls. Rule as the data show it: active = GI50 up to about 1.1 µM and inactive = higher.

Legend:
Test in all cases: growth of human tumour cells (NCI), 48 h
SK-MEL-2 = system: SK-MEL-2
PC-3 = system: PC-3
NCI-H460 = system: NCI-H460
UACC-257 = system: UACC-257
TK-10 = system: TK-10
COLO 205 = system: COLO 205
MDA-N = system: MDA-N
MDA-MB-231 = system: MDA-MB-231
HL-60 = system: HL-60
OVCAR-5 = system: OVCAR-5
HCT-116 = system: HCT-116
BT-549 = system: BT-549
ACHN = system: ACHN
NCI-H226 = system: NCI-H226
EKVX = system: EKVX
SK-OV-3 = system: SK-OV-3
SN12C = system: SN12C
NCI-H23 = system: NCI-H23
A549 = system: A549
A498 = system: A498
IGROV-1 = system: IGROV-1
SK-MEL-28 = system: SK-MEL-28
MOLT-4 = system: MOLT-4
LOX IMVI = system: LOX IMVI
M14 = system: M14
KM12 = system: KM12
UO-31 = system: UO-31
SF-295 = system: SF-295
MCF7 = system: MCF7
SNB-75 = system: SNB-75
HCC 2998 = system: HCC 2998
SW-620 = system: SW-620
OVCAR-4 = system: OVCAR-4
Malme-3M = system: Malme-3M
SR = system: SR
786-0 = system: 786-0
CAKI-1 = system: CAKI-1
Hs-578T = system: Hs-578T
HCT-15 = system: HCT-15
K562 = system: K562
HOP-92 = system: HOP-92
CCRF-CEM = system: CCRF-CEM
SK-MEL-5 = system: SK-MEL-5
SNB-19 = system: SNB-19
HT-29 = system: HT-29
UACC-62 = system: UACC-62
RXF 393 = system: RXF 393
NCI/ADR-RES = system: NCI/ADR-RES
U-251 = system: U-251
SF-539 = system: SF-539
OVCAR-8 = system: OVCAR-8
OVCAR-3 = system: OVCAR-3
HOP-62 = system: HOP-62

## C[C@@H]1[C@H](O)CC2=C(CC[C@@H](O)C2(C)C)[C@@]1(CO)CCc1ccoc1
SK-MEL-2
  GI50: > 50 µM (inactive)
PC-3
  GI50: 46.3 µM (inactive)
NCI-H460
  GI50: > 50 µM (inactive)
UACC-257
  GI50: > 50 µM (inactive)
TK-10
  GI50: > 50 µM (inactive)
COLO 205
  GI50: > 50 µM (inactive)
MDA-N
  GI50: > 50 µM (inactive)
MDA-MB-231
  GI50: > 50 µM (inactive)
HL-60
  GI50: 15.8 µM (inactive)
OVCAR-5
  GI50: > 50 µM (inactive)
HCT-116
  GI50: > 50 µM (inactive)
BT-549
  GI50: > 50 µM (inactive)
ACHN
  GI50: > 50 µM (inactive)
NCI-H226
  GI50: > 50 µM (inactive)
EKVX
  GI50: > 50 µM (inactive)
SK-OV-3
  GI50: > 50 µM (inactive)
SN12C
  GI50: > 50 µM (inactive)
NCI-H23
  GI50: > 50 µM (inactive)
A549
  GI50: > 50 µM (inactive)
A498
  GI50: > 50 µM (inactive)
IGROV-1
  GI50: > 50 µM (inactive)
SK-MEL-28
  GI50: > 50 µM (inactive)
MOLT-4
  GI50: 34.7 µM (inactive)
LOX IMVI
  GI50: > 50 µM (inactive)
M14
  GI50: > 50 µM (inactive)
KM12
  GI50: > 50 µM (inactive)
UO-31
  GI50: > 50 µM (inactive)
SF-295
  GI50: > 50 µM (inactive)
MCF7
  GI50: > 50 µM (inactive)
SNB-75
  GI50: 31.8 µM (inactive)
HCC 2998
  GI50: > 50 µM (inactive)
SW-620
  GI50: > 50 µM (inactive)
OVCAR-4
  GI50: > 50 µM (inactive)
Malme-3M
  GI50: > 50 µM (inactive)
SR
  GI50: 25.1 µM (inactive)
786-0
  GI50: > 50 µM (inactive)
CAKI-1
  GI50: > 50 µM (inactive)
Hs-578T
  GI50: > 50 µM (inactive)
HCT-15
  GI50: > 50 µM
K562
  GI50: > 50 µM (inactive)
HOP-92
  GI50: > 50 µM (inactive)
CCRF-CEM
  GI50: 29.4 µM (inactive)
SK-MEL-5
  GI50: > 50 µM (inactive)
SNB-19
  GI50: > 50 µM (inactive)
HT-29
  GI50: > 50 µM (inactive)
UACC-62
  GI50: > 50 µM (inactive)
RXF 393
  GI50: > 50 µM (inactive)
NCI/ADR-RES
  GI50: > 50 µM (inactive)
U-251
  GI50: > 50 µM (inactive)
SF-539
  GI50: > 50 µM (inactive)
OVCAR-8
  GI50: > 50 µM (inactive)
OVCAR-3
  GI50: > 50 µM (inactive)
HOP-62
  GI50: > 50 µM (inactive)
